Results: PMC12635197, “Discovery of first-in-class inhibitors of the TRF1:TIN2 protein:protein interaction by fragment screening” (Scientific Reports, 2025)
One block for each molecule: values may come before it. Where no end group is shown, it is not given here. FAM = 5(6)-carboxyfluorescein

Key:
[1] = biological target: TIN2 TBM (Homo sapiens) (UniProt Q9BSI4); conditions: cited from earlier work
[2] = biological target: T1, TRF1TRFH (Homo sapiens, UniProt P54274); assay: LO-NMR CPMG assay (relaxation-edited), singletons; type: binding; conditions: single experiment; for CPMG reduction: average peak intensity reduction on addition of TRF1TRFH, 250 µM ligand, 20 µM protein; for CPMG recovery: net recovery of peak intensity on addition of TIN2TBM peptide (40 µM) to compound plus protein
T1 construct: encoding residues 47–268, UniProt identifier P54274-1; His6-MBP (TEV-cleavable) (N, cleaved yes); made in house; host or cells: E. coli BL21-CodonPlus(DE3)-RIL
T1 sequence (P54274 47-268): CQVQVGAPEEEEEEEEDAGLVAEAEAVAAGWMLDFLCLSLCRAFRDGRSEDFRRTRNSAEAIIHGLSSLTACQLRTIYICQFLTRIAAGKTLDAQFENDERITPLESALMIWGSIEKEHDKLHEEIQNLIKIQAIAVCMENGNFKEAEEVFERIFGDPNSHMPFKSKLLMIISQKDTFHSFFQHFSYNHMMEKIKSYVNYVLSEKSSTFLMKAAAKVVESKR
Protocol: We next used a LO-NMR CPMG assay to orthogonally validate XChem hits in solution, aiming to eliminate false positives and rank hit matter for follow-up studies. Compounds were tested as singletons and prepared in two samples containing either compound alone (sample 1) or compound + TRF1TRFH (sample 2).
The fragment screen by LO-NMR was carried out using conditions described previously, with some modifications. Fragments were dispensed in triplicate into a 384-well plate using an Echo 550 liquid handler to give a final ligand concentration of 250 µM (total sample volume of 40 µL). 40 µL of TRF1TRFH protein (in NMR buffer; 20 µM final protein concentration in the assay) were added to the ‘protein’ samples; 40 µL of TRF1TRFH protein and TIN2TBM peptide (21-mer, Ac-[…]-CONH2; 40 µM final concentration in the assay) were both added to the ‘competitor’ samples; 40 µL NMR buffer were added to the ‘compound-only’ samples. Solutions were transferred to 1.7-mm NMR tubes using a Bruker SamplePro Tube robotics system. ^1H NMR spectra were recorded on a Bruker AVIII 500 MHz spectrometer at 298 K, equipped with a 1.7-mm TXI probe, with samples in 1.7-mm SampleJET NMR tubes (Bruker). DMSO and water signals were dampened. A relaxation spin filter was applied at 400 ms. Data were processed using Bruker Topspin 4.0. Lines were broadened with LB = 3.0, and the baseline was corrected between 6.0 and 10.0 ppm.
The data were then analysed using the MNova Screen software. Only peaks between 5.5 and 9.5 ppm were considered. Peaks with a height of < 5% maximum peak height within the region of interest were considered noise, and the minimum matched peak level was set at > 51%. The relative peak intensity change (I) was calculated for all peaks in the 5.5–9.5 ppm region, for each compound, as described previously. The average integral for all peaks between 6.0 and 10.0 ppm was calculated, and the differences between compound-only, compound-plus-protein, and compound-plus-protein-plus-competitor samples were compared. The net recovery was calculated by subtracting the reduction in peak integral of the compound-plus-protein samples from the compound-plus-protein-plus-competitor samples.
For hit validation, relaxation-edited LO-NMR experiments were repeated as described above on single compounds instead of fragment cocktails.

[3] = Fragment solubility assay (quantitative 1H NMR); type: physicochemical; conditions: Supplementary Table 1
Protocol: Aqueous solubility test samples were prepared by adding 3.6 µL compound (50 mM stock in 100% DMSO-d6) to 176.4 µL NMR buffer in a microcentrifuge tube. The samples were incubated overnight and transferred to a 3-mm NMR tube (Bruker, Part No. Z112272). ^1H NMR spectra were recorded, with the DMSO and water signals dampened. 1 mM caffeine (Sigma, C1778 in PBS (pH 7.4) with 1% DMSO-d6) was used as a standard to quantify the ligand signals and determine the concentration of samples.
NMR data were collected on a Bruker Avance Neo 600-MHz spectrometer equipped with a 5 mm TCI-CryoProbe. The ^1H spectrum was referenced to the internal deuterated solvent. The operating frequency for ^1H was 600 MHz. All NMR data were acquired at the temperature of 298 K. All data were acquired and processed using Bruker Topspin 4.0. The quantitative ^1H-NMR spectrum was acquired using a Bruker standard 1D lc1pngppsf2 pulse sequence with 32 scans. The sweep width was 6.2 ppm with O1P set to 8.8 ppm, and the FID contained 16k time-domain data points. Relaxation delay was set to 20 s. Water signal was suppressed.

[4] = biological target: T1, TRF1TRFH; assay: Crystal soaking of TRF1TRFH crystals; conditions: soaking into TRF1TRFH crystals; Supplementary Table 1
From the text: Attempts to soak TRF1TRFH crystals with the commercially available analogues of the XChem hit 5 were also unsuccessful. Only one slightly smaller analogue (22) could be soaked into TRF1TRFH crystals, albeit with an ambiguous binding mode. […] In the case of compound 5, we observed a hydrogen bond between the amino group of the fragment and a backbone carbonyl in the neighbouring protein chain (Fig. 2i). […] Additionally, the pocket normally occupied by the conserved phenylalanine residue of the TIN2 F-X-L-X-P motif was fully obstructed by a crystal contact with a TRF1TRFH copy in an adjacent asymmetric unit, further limiting the possibility of obtaining XChem hits outside of the leucine pocket.
TRF1TRFH crystals in the P3_121 space group were grown by sitting drop vapour diffusion in SWISSCI 3-drop plates using similar crystallisation conditions to those described previously. The total drop volume was 300 nL, consisting of 150 nL of TRF1TRFH (31.2 mg/mL) and 150 nL of reservoir solution (1% PEG8000, 100 mM MES pH 6.0, 1–12 mM Mg(OAc)2, 10–15% glycerol), whilst the reservoir volume was 35 µL. Crystallisation plates were set up using an SPT Labtech mosquito Xtal2 liquid handler. Cuboid-shaped crystals grew to their maximum size (300 μm across) within 24 h. Crystals were cryoprotected through the addition of 180 nL of 40% glycerol to the crystal drop prior to harvesting, giving a final glycerol concentration of […] (accounting for the glycerol already in the crystallisation conditions). The crystals were then flash-frozen in liquid nitrogen, and data were collected at the Diamond Light Source beamlines I04 and I04-1 and processed automatically using the Xia2 Dials pipeline[53],[54]. The TRF1TRFH structure was solved by molecular replacement in Phaser MR[55] within CCP4[56] using the previously published TRF1TRFH structure as a search model (PDB: 1H6O)[31], after having first stripped the search model of solvent molecules and ligands. Structure refinement was done using Refmac[57] and Buster[36], and model correction and building was done using Coot 0.9.6[35].
The DSi-Poised library (768 fragment, Enamine)[32], the EUbOPEN DSiP extension library (108 fragments) and the FragLite library (31 fragments)[33] were screened against TRF1TRFH crystals. Compounds at 500 mM in DMSO stocks were dispensed into selected crystal drops as singletons using an Echo 550 liquid handler to give a final concentration of 50 mM (10% DMSO final concentration). After incubation for 1 h at 20 °C, 180 nL of glycerol (40% stock, final drop concentration 28.8–32.5%) were added to each drop immediately prior to crystal harvesting and flash-freezing in liquid nitrogen.
Data were collected on the I04-1 beamline at Diamond Light Source. […]

[5] = biological target: T2, (StrepII)2-TEV-tagged TIN2, subunit of recombinant shelterin (UniProt Q9BSI4-1 1-451); assay: mass photometry; SEC-purified shelterin without compound; complex of around 700 kDa; 50 mM HEPES-NaOH pH 8.0, 300 mM NaCl; conditions: both partners purified
T2 construct: TIN2, gene NM_001099274.1, codon-optimised; a TEV site lies between tag and protein; The separately made control protein is called TIN2L; The discussion says that the complex carries a short peptidic tag on TIN2; source: Sf9, co-expressed with the other shelterin subunits (MultiBac baculovirus), purified (StrepTrap, serial SEC)
T2 sequence (looked up): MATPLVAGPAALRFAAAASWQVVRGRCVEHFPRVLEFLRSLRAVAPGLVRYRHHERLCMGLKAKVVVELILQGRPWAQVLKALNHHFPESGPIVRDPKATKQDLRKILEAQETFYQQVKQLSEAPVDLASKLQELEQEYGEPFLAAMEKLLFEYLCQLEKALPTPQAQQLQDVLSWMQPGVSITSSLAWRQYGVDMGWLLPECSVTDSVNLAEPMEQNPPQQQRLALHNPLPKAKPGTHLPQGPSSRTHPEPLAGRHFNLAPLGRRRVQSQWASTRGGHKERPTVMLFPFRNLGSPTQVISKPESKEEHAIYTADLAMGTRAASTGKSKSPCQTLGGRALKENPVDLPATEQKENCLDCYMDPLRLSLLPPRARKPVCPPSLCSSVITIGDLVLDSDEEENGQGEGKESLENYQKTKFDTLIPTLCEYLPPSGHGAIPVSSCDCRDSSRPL

[6] = biological target: T3, TRF1 (telomeric repeat-binding factor 1), full length, subunit of recombinant shelterin (human), P54274; assay: mass photometry; SEC-purified shelterin 1.25 µM incubated 1 h at room temperature with 100-300 µM compound 40, cross-linked with 0.1% glutaraldehyde, diluted to 50 nM; conditions: remark: other sources report otherwise
T3 chain: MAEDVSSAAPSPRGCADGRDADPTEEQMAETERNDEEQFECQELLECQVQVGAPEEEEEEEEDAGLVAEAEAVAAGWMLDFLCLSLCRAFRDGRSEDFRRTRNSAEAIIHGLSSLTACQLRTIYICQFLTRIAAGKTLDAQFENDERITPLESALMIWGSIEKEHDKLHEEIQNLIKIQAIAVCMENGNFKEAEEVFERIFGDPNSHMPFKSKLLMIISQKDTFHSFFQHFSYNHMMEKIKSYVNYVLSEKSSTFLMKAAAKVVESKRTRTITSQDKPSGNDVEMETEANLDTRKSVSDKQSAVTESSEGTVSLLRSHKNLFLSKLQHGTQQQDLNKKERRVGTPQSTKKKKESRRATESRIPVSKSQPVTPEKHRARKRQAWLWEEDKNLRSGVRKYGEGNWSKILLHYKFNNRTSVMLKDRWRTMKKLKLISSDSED

[7] = biological target: T4, TRFH domain of TRF1 (TRF1_(TRFH)), residues 47–268 (human, UniProt P54274-1 47-268); assay: ligand-observed NMR (CPMG / R2 relaxation) competition; fragment 250 µM with 20 µM TRF1_(TRFH), with or without 40 µM TIN2TBM peptide as competitor; NMR buffer; 298 K; conditions: both partners purified
T4 construct: cDNA codon-optimised for E. coli; also called TRF homology (TRFH) domain; source: E. coli BL21-CodonPlus(DE3)-RIL, purified (HisTrap, TEV cleavage, second HisTrap, Superdex 200 SEC); not shown: His6, N-terminal, cleaved; MBP, N-terminal, cleaved
T4 sequence (looked up): T1 sequence (P54274 47-268)

[8] = biological target: T4, TRFH domain of TRF1 (TRF1_(TRFH)), …; assay: fluorescence polarisation; direct titration: TRF1_(TRFH) 20 to 0.02 µM (11 points) against 25 nM TIN2-FAM; 25 mM HEPES-NaOH pH 7.5, 100 mM NaCl, 1 mM TCEP, 0.05% w/v CHAPS; 1 h at room temperature; conditions: both partners purified

Molecule: TRF1 TRFH (from UniProt P54274)
Kd [1]: 300 nM

CPMG reduction [2]: 28%
CPMG recovery [2]: 11%
Aq. Sol. [3]: 400 µM
Crystal structure [4]: No
Molecule: Nc1nc2cc3c(cc2s1)OCO3 [Compound 24]

CPMG reduction [2]: 18%
CPMG recovery [2]: 9%
Aq. Sol. [3]: 790 µM
Crystal structure [4]: Yes
Molecule: COc1ccc2sc(C)nc2c1 [Compound 22]

CPMG reduction [2]: 14%
CPMG recovery [2]: 12%
Aq. Sol. [3]: 190 µM
Crystal structure [4]: No
Molecule: COc1cc2nc(N)sc2cc1OC [Compound 21]

stoichiometry N [5]: 2 TRF1 per TIN2
stoichiometry N [6]: 2
B1: TRF1 (telomeric repeat-binding factor 1), full length, subunit of recombinant shelterin (natural protein, human, UniProt P54274-1 1-439, looked up)
chain: T3 chain
notes: TRF1, gene NM_017489.2, codon-optimised; the UniProt identifier is printed for the TRFH construct of the same protein; Further details of the shelterin construct 'to be reported elsewhere'; also called full-length TRF1

binding result [7]: binds
B2: TIN2TBM peptide (21-mer, Ac-RHFNLAPLGRRRVQSQWASTR-CONH2) (peptide)
peptide: Ac-RHFNLAPLGRRRVQSQWASTR-NH2
notes: limits worked out from L260 of the F-X-L-X-P motif

Kd [8]: 400 nM
Molecule: {FAM}-RHFNLAPLGRRRVQSQWASTR [TIN2TBM peptide labelled with an N-terminal 5(6)-carboxyfluorescein (TIN2-FAM)]
